Results published in patent US20250230193A1, “CYCLIC COMPOUND HAVING SELECTIVE KRAS INHIBITORY EFFECT ON HRAS AND NRAS” (CHUGAI SEIYAKU KABUSHIKI KAISHA, priority 2022, published 2025).
Where a SMILES comes first, the peptide text is derived from it. Bridges are numbered along the chain shown (N, C = ends). [ ]: non-standard residue; d: D form. The star is where a group is joined. hPhe(3,5-F2-4-CF3) = N[C@@H](CCc1cc(F)c(C(F)(F)F)c(F)c1)C(=O)O; hPhe(3-Cl-4-CF3) = N[C@@H](CCc1ccc(C(F)(F)F)c(Cl)c1)C(=O)O; NPrPhe(4-CF3) = CCCN[C@@H](Cc1ccc(C(F)(F)F)cc1)C(=O)O; NMeAbu(4,4,4-F3) = CN[C@@H](CC(F)(F)F)C(=O)O; NMeGly(cPent) = CN[C@H](C(=O)O)C1CCCC1; Gly(cBu) = N[C@H](C(=O)O)C1CCC1; NMeD = CN[C@@H](CC(=O)O)C(=O)O; NMeL = CN[C@@H](CC(C)C)C(=O)O; Morpholide = C1CN(*)CCO1; Ac5c = NC1(C(=O)O)CCCC1; NEtG = CCNCC(=O)O; Sar = CNCC(=O)O

Legend:
[1] = target: GDP-bound NRAS wild-type protein (Homo sapiens, UniProt P01111); assay: Binding to NRAS by surface plasmon resonance (SPR), Single Cycle Kinetics; conditions: for NRAS/KRAS (ratio of KD value for NRAS to KD value for KRAS): GDP-bound NRAS wild-type vs GDP-bound KRAS wild-type
[2] = target: GDP-bound HRAS wild-type protein (Homo sapiens, UniProt P01112); assay: Binding to HRAS by surface plasmon resonance (SPR), Single Cycle Kinetics; conditions: for HRAS/KRAS (ratio of KD value for HRAS to KD value for KRAS): GDP-bound HRAS wild-type vs GDP-bound KRAS wild-type
[3] = KD ratio NRAS/KRAS, class symbols
[4] = KD ratio HRAS/KRAS, class symbols

Sequence of GDP-bound NRAS wild-type protein (P01111 whole entry): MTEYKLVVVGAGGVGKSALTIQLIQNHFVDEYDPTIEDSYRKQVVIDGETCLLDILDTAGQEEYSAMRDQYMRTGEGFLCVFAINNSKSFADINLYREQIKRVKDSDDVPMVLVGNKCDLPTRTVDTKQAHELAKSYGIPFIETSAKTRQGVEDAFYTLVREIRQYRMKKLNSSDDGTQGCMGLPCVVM
Sequence of GDP-bound HRAS wild-type protein (P01112 whole entry): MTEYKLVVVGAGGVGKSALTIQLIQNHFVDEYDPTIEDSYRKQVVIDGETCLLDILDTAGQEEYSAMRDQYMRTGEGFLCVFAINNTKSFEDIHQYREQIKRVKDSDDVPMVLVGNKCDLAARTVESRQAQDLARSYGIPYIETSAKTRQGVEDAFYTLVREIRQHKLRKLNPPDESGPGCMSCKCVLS

SMILES: CCCN(C)C(=O)[C@@H]1CC(=O)N(C)[C@@H](C)C(=O)N[C@@H]([C@@H](C)CC)C(=O)N(C)CC(=O)N(C)[C@H]2C/C=C\CCN(C2=O)[C@@H](Cc2ccc(C(F)(F)F)cc2)C(=O)N(C)CC(=O)N[C@@H](CCc2cc(F)c(C(F)(F)F)c(F)c2)C(=O)N2C[C@H](OCC)C[C@H]2C(=O)NC2(CCC2)C(=O)N(C)[C@@H](C2CCCC2)C(=O)N1C [PP1666]
- NRAS/KRAS (ratio of KD value for NRAS to KD value for KRAS) ([1]; SPR): A (a compound having 10 or more and less than 20 is denoted as A)
- HRAS/KRAS (ratio of KD value for HRAS to KD value for KRAS) ([2]; SPR): A (a compound having 10 or more and less than 20 is denoted as A)

SMILES: CCCN1C(=O)CN(C)C(=O)CN(CC)C(=O)[C@H](C2CCC2)NC(=O)[C@H](CC(C)C)N(C)C(=O)C[C@@H](C(=O)N2CCOCC2)N(C)C(=O)[C@H](C2CCCC2)N(C)C(=O)C2(CCCC2)NC(=O)[C@@H]2CCCN2C(=O)[C@H](CCc2ccc(C(F)(F)F)c(Cl)c2)NC(=O)CN(C)C(=O)[C@@H]1Cc1ccc(C(F)(F)F)cc1 [PP0292] ([NMeL][Gly(cBu)][NEtG][Sar][NPrPhe(4-CF3)][Sar][hPhe(3-Cl-4-CF3)]P[Ac5c][NMeGly(cPent)][NMeD]-Morpholide; lactam N-11)
- NRAS/KRAS (ratio of KD for GDP-bound NRAS wild-type to KD for KRAS) ([1]; KD ratio NRAS/KRAS, SPR): B (a compound having 3 or more and less than 10 is denoted as B)
- HRAS/KRAS (ratio of KD for GDP-bound HRAS wild-type to KD for KRAS) ([2]; KD ratio HRAS/KRAS, SPR): C (A compound having a KD ratio of 0.1 or more and less than 3 is denoted as C)

SMILES: CCC[C@H]1C(=O)N[C@@H]([C@@H](C)CC)C(=O)N(C)CC(=O)N(C)[C@H]2C/C=C\CCN(C2=O)[C@@H](Cc2ccc(C)cc2)C(=O)N(C)CC(=O)N[C@@H](CCc2ccc(Cl)c(OC)c2)C(=O)N2C[C@H](OCC)C[C@H]2C(=O)NC2(CC(C)(C)C2)C(=O)N(C)[C@@H](C2CCCC2)C(=O)N(C)[C@H](C(=O)N(C)C)CC(=O)N1C [PP2790]
- NRAS/KRAS (ratio of KD value with respect to GDP-bound NRAS wild-type protein to KD value with respect to KRAS) [1, 3]: A (a compound having 10 or more and less than 20 is denoted as A)
- HRAS/KRAS (ratio of KD value with respect to GDP-bound HRAS wild-type protein to KD value with respect to KRAS) [2, 4]: A (a compound having 10 or more and less than 20 is denoted as A)

SMILES: CC[C@H](C)[C@@H]1NC(=O)[C@H](C2CC2)N(C)C(=O)C[C@@H](C(=O)N(C)C)N(C)C(=O)[C@H](C2CCCC2)N(C)C(=O)C2(CCCC2)N(C)C(=O)[C@@H]2C[C@@H](C)CN2C(=O)[C@H](CCc2cc(F)c(C(F)(F)F)c(F)c2)NC(=O)CN(C)C(=O)[C@H](Cc2ccc(C)cc2)N2CC/C=C\C[C@@H](C2=O)N(C)C(=O)CN(C)C1=O [PP1813]
- NRAS/KRAS (ratio of KD value for NRAS to KD value for KRAS) ([1]; SPR): A (a compound having 10 or more and less than 20 is denoted as A)
- HRAS/KRAS (ratio of KD value for HRAS to KD value for KRAS) ([2]; SPR): B (a compound having 3 or more and less than 10 is denoted as B)

SMILES: CCCO[C@@H]1C[C@H]2C(=O)NC3(CC(C)(C)C3)C(=O)N(C)[C@@H](C3CCCC3)C(=O)N(C)[C@H](C(=O)N(C)C)CC(=O)N(C)[C@H]3CCCCc4ccc(cc4)C[C@@H](C(=O)N(C)CC(=O)N[C@@H](CCc4ccc(C(F)(F)F)c(OC)c4)C(=O)N2C1)N1CC/C=C\C[C@@H](C1=O)N(C)C(=O)CN(C1CC1)C(=O)[C@H]([C@@H](C)CC)NC3=O [PP3082]
- NRAS/KRAS (ratio of KD value with respect to GDP-bound NRAS wild-type protein to KD value with respect to KRAS) ([1]; KD ratio NRAS/KRAS, SPR, GDP-bound wild-type proteins): B (a compound having 3 or more and less than 10 is denoted as B)
- HRAS/KRAS (ratio of KD value with respect to GDP-bound HRAS wild-type protein to KD value with respect to KRAS) ([2]; KD ratio HRAS/KRAS, SPR, GDP-bound wild-type proteins): B (a compound having 3 or more and less than 10 is denoted as B)

SMILES: CCC(CC)[C@H]1C(=O)N(C)[C@H](C(=O)N(C)C)CC(=O)N(C)[C@@H](COC)C(=O)N[C@@H]([C@@H](C)CC)C(=O)N(C2CC2)CC(=O)N(C)[C@H]2C/C=C\CCN(C2=O)[C@@H](Cc2ccc(C(F)F)cc2)C(=O)N(C)CC(=O)N[C@@H](CCc2cc(F)c(C(F)(F)F)c(F)c2)C(=O)N2C[C@H](OC3CCC3)C[C@H]2C(=O)NC2(CC(C)(C)C2)C(=O)N1C [PP2631]
- NRAS/KRAS (ratio of KD value with respect to GDP-bound NRAS wild-type protein to KD value with respect to KRAS) [1, 3]: AA (a compound having 20 or more is denoted as AA)
- HRAS/KRAS (ratio of KD value with respect to GDP-bound HRAS wild-type protein to KD value with respect to KRAS) [2, 4]: A (a compound having 10 or more and less than 20 is denoted as A)

SMILES: CCCN1C(=O)CN(C)C(=O)CN(C)C(=O)[C@H]([C@@H](C)CC)NC(=O)[C@H](CC(C)C)N(C)C(=O)C[C@@H](C(=O)N2CCOCC2)N(C)C(=O)[C@H](CC(F)(F)F)N(C)C(=O)C2(CCCC2)NC(=O)[C@@H]2CCCN2C(=O)[C@H](CCc2cc(F)c(C(F)(F)F)c(F)c2)NC(=O)CN(C)C(=O)[C@@H]1Cc1ccc(C(F)(F)F)cc1 [PP0767] ([NMeL]I[Sar][Sar][NPrPhe(4-CF3)][Sar][hPhe(3,5-F2-4-CF3)]P[Ac5c][NMeAbu(4,4,4-F3)][NMeD]-Morpholide; lactam N-11)
- NRAS/KRAS (ratio of KD value with respect to GDP-bound NRAS wild-type protein to KD value with respect to KRAS) ([1]; KD ratio NRAS/KRAS, SPR): B (a compound having 3 or more and less than 10 is denoted as B)
- HRAS/KRAS (ratio of KD value with respect to GDP-bound HRAS wild-type protein to KD value with respect to KRAS) ([2]; KD ratio HRAS/KRAS, SPR): C (A compound having a KD ratio of 0.1 or more and less than 3 is denoted as C)
